Results on four compounds are retold here after ChEMBL document CHEMBL1149624, “9-Substituted berberine derivatives as G-quadruplex stabilizing ligands in telomeric DNA” (Bioorg Med Chem, 2007).

Experiment [1] is filed under the species Homo sapiens. Nature of the experiment: Binding affinity to human telo21 G-quadruplex DNA assessed as thermal stability in tris-HCl buffer at pH 7.4.
The species named for experiment [2] is Homo sapiens. Nature of the experiment: Binding affinity to human telo21 G-quadruplex DNA assessed as change in thermal stability in tris-HCl buffer at pH 7.4.
Experiment [3] in a line: Inhibition of telomerase expressed in MCF7 cells by TRAP assay. Type of experiment: cell-based, Homo sapiens.
The nature of experiment [4]: Inhibition of amplification in human telo21 G-quadruplex DNA by PCR stop assay.

On to `CCN(CC)CCOc1c(OC)ccc2cc3[n+](cc12)CCc1cc2c(cc1-3)OCO2`, for which, in experiment [1], the Tm was 57 °C. Also, the ΔTm in experiment [2] was 16.9 °C. For the same compound, the values for the IC50 in experiment [3] and in experiment [4] were 25 µM and 2.3 µM, respectively.
The corresponding values for `COc1ccc2cc3[n+](cc2c1OCCCN1CCNCC1)CCc1cc2c(cc1-3)OCO2` are 63.1 °C, 23 °C, 7.5 µM and 0.7 µM.
The like results for `COc1ccc2cc3[n+](cc2c1OC)CCc1cc2c(cc1-3)OCO2` [BERBERINE CHLORIDE] were, in that order, 44 °C, 3.9 °C, 75 µM and 2.1 µM.
Take `COc1ccc2cc3[n+](cc2c1OCCN(C(C)C)C(C)C)CCc1cc2c(cc1-3)OCO2`: the Tm in experiment [1] turned out to be 51.7 °C. Also, the ΔTm in experiment [2] came to 11.6 °C. Further, the IC50 came out at 25 µM in experiment [3] and 2.3 µM in experiment [4].

What is called ΔTm is the shift of the melting midpoint relative to a reference. The IC50 is the concentration at which inhibition is half-maximal. Read a low IC50 as greater potency.
